{"source": "patent US20260049072A1", "about": "“HETEROCYCLIC COMPOUND FOR INDUCING DEGRADATION OF MUTANT KRAS PROTEIN” (Astellas Pharma Inc., priority 2022, published 2026)", "key": {"[1]": {"test_system": "PA-TU-8902 cells", "test": "Non-anchorage-dependent cell growth inhibition (spheroid 3D culture), PA-TU-8902", "assay_type": "cell-based, human", "conditions": "Homo sapiens, PaTu 8902, 144 h; KRAS G12V mutant-positive, 3D spheroid, six days, CellTiter-Glo 2.0; read-out: PA-TU-8902 IC50", "procedure,_shortened": "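Human pancreatic lines (PA-TU-8902 KRAS G12V, AsPC-1 G12D, MIA PaCa-2 G12C) grown as spheroids at 5×10^2 cells/well in low-adhesion round-bottom plates; MIA PaCa-2 in RPMI-1640 with 10% FBS. Compounds added next day (6-9 points, 3 μM to 0.3 nM final) for six days at 37 °C, 5% CO2. CellTiter-Glo luminescence, IC50 by Sigmoid-Emax regression versus DMSO and cell-free controls.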"}, "[2]": {"test_system": "AsPC-1 cells", "test": "Non-anchorage-dependent cell growth inhibition (spheroid 3D culture), AsPC-1", "assay_type": "cell-based", "conditions": "Homo sapiens, ASPC1, 144 h; KRAS G12D mutant-positive, 3D spheroid, six days, CellTiter-Glo 2.0; read-out: AsPC-1 IC50", "procedure": "(§1) Test Example 3: Evaluation of Non-Anchorage-Dependent Cell Growth Inhibitory Activity on Human KRAS G12V Mutant-Positive Pancreatic Cancer Line PA-TU-8902, Human KRAS G12D Mutant-Positive Pancreatic Cancer Line AsPC-1 or Human KRAS G12C Mutant-Positive Pancreatic Cancer Line MIA PaCa-2\n(§2) The non-anchorage-dependent cell growth inhibitory activities of subject compounds were evaluated by spheroid 3D cell culture.\n(§3) PA-TU-8902 cells, AsPC-1 cells or MIA PaCa-2 cells (RIKEN BRC, RCB2094) were seeded at 36 µL/well on a low-cell-adhesive round bottom 384-well plate (Prime Surface: from Sumitomo Bakelite) to give 5×10^2 cells per well. The PA-TU-8902 cells were under the same conditions as in Test Example 1-1, and the AsPC-1 cells were under the same conditions as in Test Example 1-2. For the MIA PaCa-2 cells, RPMI-1640 medium containing 10% fetal bovine serum was used in the presence of 5% CO2 at 37° C.\n(§4) The next day, the subject compounds (6-9 points having final concentrations in the range of 3 μM to 0.3 nM) and DMSO, which was the solvent for the subject compounds, as a negative control were diluted 100-fold with a fresh medium and were each added at 4 μL per well. After culturing in the presence of 5% CO2 at 37° C. for six days, CellTiter-Glo 2.0 (from Promega) was added at 20 μL per well. After stirring with a plate mixer (from FINEPCR) at normal temperature for an hour, the luminescent signals were measured with ARVO X3 (from PerkinElmer).\n(§5) With the signaling value in treatment with DMSO taken as 0% inhibition and with the signaling value in the medium alone without cells taken as 100% inhibition, the 50% inhibition values (IC50) were calculated by Sigmoid-Emax model nonlinear regression analysis."}, "[3]": {"target": "T1, RAS G12V (Homo sapiens, UniProt P01116, G12V)", "T1 construct": "host or cells: PA-TU-8902 human pancreatic cancer cells", "T1 sequence (P01116 1-188 isoform P01116-2 G12V)": "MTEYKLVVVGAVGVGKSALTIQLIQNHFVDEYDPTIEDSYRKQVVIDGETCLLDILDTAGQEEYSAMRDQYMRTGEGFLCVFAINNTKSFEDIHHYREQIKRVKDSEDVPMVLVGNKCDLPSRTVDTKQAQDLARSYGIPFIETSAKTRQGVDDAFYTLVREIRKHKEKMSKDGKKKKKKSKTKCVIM", "test": "RAS G12V degradation activity, Cell ELISA, PA-TU-8902", "assay_type": "cell-based", "conditions": "PA-TU-8902 cells, 24 hours, 100% = Example compound 17 at 1 μM; read-out: DC50 (RAS G12V 50% degradation value)", "procedure": "Test Example 1-1: Evaluation of RAS G12V Degradation Activity on Human KRAS G12V Mutant-Positive Pancreatic Cancer Line PA-TU-8902\nThe RAS G12V degradation activities of subject compounds were evaluated by measuring the expression levels of RAS G12V by a Cell ELISA method.\nPA-TU-8902 cells (DSMZ, ACC 179) were seeded at 36 μL per well on a 384-well plate (from Greiner bio-one) to give 1.5×10^4 cells per well. As for the cell culture conditions, DMEM medium (from Sigma-Aldrich) containing 10% fetal bovine serum (from Cytiva) was used in the presence of 5% CO2 at 37° C.\nThe next day, the subject compounds (10 points having final concentrations in the range of 3 μM to 0.1 nM), Example compound 17 of a final concentration of 1 μM as a positive control and dimethyl sulfoxide (DMSO), which was the solvent for the subject compounds, as a negative control were diluted 100-fold with a fresh medium and were each added at 4 μL per well, followed by culturing for 24 hours.\nThe next day, the culture supernatant was removed, and a 4% paraformaldehyde phosphate buffer solution (from FUJIFILM Wako) was added at 20 μL per well. The plate was allowed to stand for 30 minutes at room temperature to thus immobilize the cells. Then, the supernatant was removed, and 0.1% Triton X-100 (from Amersham Biosciences)-containing Phosphate buffered saline (PBS) was added at 20 μL per well. After allowing the plate to stand at room temperature for 10 minutes, the supernatant was removed, and the wells were washed twice in total by adding PBS at 25 μL per well and removing the supernatant. The washing operations below were performed in the same manner. Next, the supernatant was removed, and 0.5% sodium dodecyl sulfate (SDS; from ThermoFisher Scientific)-containing PBS was added at 20 μL per well. After allowing the plate to stand at room temperature for 10 minutes, the plate was centrifuged to remove the supernatant. After washing with PBS, the supernatant was removed by centrifugation, and a blocking solution (PVDF Blocking Reagent for Can Get Signal; from TOYOBO) was added at 20 μL per well. After allowing the plate to stand for 30 minutes at room temperature, the supernatant was removed by centrifugation, and a solution obtained by diluting an anti-Ras (G12V Mutant Specific) antibody (Ras (G12V Mutant Specific) (D2H12) Rabbit mAb; from Cell Signaling Technology; 500-fold dilution) and an anti-3-actin antibody (Anti-beta Actin antibody; from Abcam; 5,000-fold dilution) with Can Get Signal Solution 2 (from TOYOBO) was added at 15 μL per well as primary antibodies. The plate was allowed to stand overnight at 4° C.\nThe next day, the supernatant was removed by centrifugation, and the plate was washed with PBS. The supernatant was removed by centrifugation, and a solution obtained by diluting an anti-rabbit IgG antibody (IRDye 800CW Goat anti-Rabbit IgG; from LI-COR Biosciences) and an anti-mouse IgG antibody (IRDye 680RD Donkey anti-Mouse IgG; from LI-COR Biosciences) 1,000-fold with Can Get Signal Solution 2 was added at 15 μL per well as secondary antibodies. After allowing the plate to stand at room temperature for an hour, the supernatant was removed by centrifugation, and the plate was washed with PBS. After removing the supernatant, the plate was dried as it was with air at room temperature for two hours or more, and the 700-nm and 800-nm fluorescent signals were measured with Aerius (from LI-COR Biosciences).\nWith the RAS G12V signaling value at the time of addition of DMSO corrected with the signaling value of 3-actin taken as 0% and with the RAS G12V signaling value at the time of addition of Example compound 17 of a final concentration of 1 μM taken as 100%, the RAS G12V degradation rates were calculated. The 50% degradation values (DC50) were calculated by Sigmoid-Emax model nonlinear regression analysis."}, "[4]": {"test_system": "MIA PaCa-2 cells", "test": "Non-anchorage-dependent cell growth inhibition (spheroid 3D culture), MIA PaCa-2", "assay_type": "cell-based", "conditions": "Homo sapiens, MIA PaCa-2, 144 h; KRAS G12C mutant-positive, 3D spheroid, six days, CellTiter-Glo 2.0; read-out: MIA PaCa-2 IC50", "procedure": "as §1, §2, §3, §4, §5"}}, "data": [{"smiles": "Cc1ncsc1-c1ccc([C@H](CO)NC(=O)[C@@H]2C[C@@H](O)CN2C(=O)[C@H](C(C)C)n2cc(-c3ccc(COc4c(-c5c(C)c(F)cc6[nH]ncc56)c(C5CC5)cc5c(NC6CN(c7ncccn7)C6)nc(OC6CCOCC6)nc45)cc3)nn2)cc1", "note": "[Example 15, (4R)-1-[(2S)-2-{4-[4-({[(7M)-6-cyclopropyl-7-(6-fluoro-5-methyl-1H-indazol-4-yl)-2-[(oxan-4-yl)oxy]-4-{[1-(pyrimidin-2-yl)azetidin-3-yl]amino}quinazolin-8-yl]oxy}methyl)phenyl]-1H-1,2,3-triazol-1-yl}-3-methylbutanoyl]-4-hydroxy-N-{(1R)-2-hydroxy-1-[4-(4-methyl-1,3-thiazol-5-yl)phenyl]ethyl}-L-prolinamide]", "values": [{"measurement": "IC50", "setting": "[1]", "value": 161, "unit": "nM"}, {"measurement": "IC50", "setting": "[2]", "value": 126, "unit": "nM"}, {"measurement": "DC50", "setting": "[3]", "value": 89, "unit": "nM"}, {"measurement": "IC50", "setting": "[4]", "value": 6, "unit": "nM"}]}, {"smiles": "CO[C@@H](C)COc1nc(N2CC(C#N)C2)c2cc(C3CC3)c(-c3c(C)c(F)cc4[nH]ncc34)c(OCc3ccc(-c4cn([C@H](C(=O)N5C[C@H](O)C[C@H]5C(=O)N[C@@H](CO)c5ccc(-c6scnc6C)cc5)C(C)C)nn4)cc3)c2n1", "note": "(atropisomer, axis not shown) [Example 20]", "values": [{"measurement": "IC50", "setting": "[1]", "value": 63, "unit": "nM"}, {"measurement": "IC50", "setting": "[2]", "value": 68, "unit": "nM"}, {"measurement": "DC50", "setting": "[3]", "value": 48, "unit": "nM"}, {"measurement": "IC50", "setting": "[4]", "value": 14, "unit": "nM"}]}, {"smiles": "CNCCNC(=O)N1CC(Oc2nc(OC[C@H](C)OC)nc3c(OCc4ccc(-c5cn([C@H](C(=O)N6C[C@H](O)C[C@H]6C(=O)N[C@@H](CO)c6ccc(-c7scnc7C)cc6)C(C)C)nn5)cc4)c(-c4c(C)c(F)cc5[nH]ncc45)c(C4CC4)cc23)C1", "note": "(atropisomer, axis not shown) [Example 18]", "values": [{"measurement": "IC50", "setting": "[1]", "value": 69, "unit": "nM"}, {"measurement": "IC50", "setting": "[2]", "value": 32, "unit": "nM"}, {"measurement": "DC50", "setting": "[3]", "value": 69, "unit": "nM"}, {"measurement": "IC50", "setting": "[4]", "value": 26, "unit": "nM"}]}, {"smiles": "CO[C@@H](C)COc1cc(OC2CN(C(=O)CCCN(C)C)C2)c2cc(C3CC3)c(-c3c(C)c(F)cc4[nH]ncc34)c(OCc3ccc(-c4cn([C@H](C(=O)N5C[C@H](O)C[C@H]5C(=O)N[C@@H](CO)c5ccc(-n6cncn6)cc5)C(C)C)nn4)cc3)c2n1", "note": "(atropisomer, axis not shown; (M)) [Example 41, (4R)-1-[(2S)-2-(4-{4-[({(7M)-6-cyclopropyl-4-({1-[4-(dimethylamino)butanoyl]azetidin-3-yl}oxy)-7-(6-fluoro-5-methyl-1H-indazol-4-yl)-2-[(2S)-2-methoxypropoxy]quinolin-8-yl}oxy)methyl]phenyl}-1H-1,2,3-triazol-1-yl)-3-methylbutanoyl]-4-hydroxy-N-{(1R)-2-hydroxy-1-[4-(1H-1,2,4-triazol-1-yl)phenyl]ethyl}-L-prolinamide]", "values": [{"measurement": "IC50", "setting": "[1]", "value": 52, "unit": "nM"}, {"measurement": "IC50", "setting": "[2]", "value": 29, "unit": "nM"}, {"measurement": "DC50", "setting": "[3]", "value": 30, "unit": "nM"}, {"measurement": "IC50", "setting": "[4]", "value": 23, "unit": "nM"}]}, {"smiles": "CO[C@@H](C)COc1nc(NC2CN(C(=O)O[C@H]3C[C@@H](N(C)C)C3)C2)c2cc(C3CC3)c(-c3c(C)c(F)cc4[nH]ncc34)c(OCc3ccc(-c4cn([C@H](C(=O)N5C[C@H](O)C[C@H]5C(=O)N[C@@H](CO)c5ccc(N6CCOC6=O)cc5)C(C)C)nn4)cc3)c2n1", "note": "(atropisomer, axis not shown) [Example 4]", "values": [{"measurement": "IC50", "setting": "[1]", "value": 72, "unit": "nM"}, {"measurement": "IC50", "setting": "[2]", "value": 38, "unit": "nM"}, {"measurement": "DC50", "setting": "[3]", "value": 45, "unit": "nM"}, {"measurement": "IC50", "setting": "[4]", "value": 22, "unit": "nM"}]}, {"smiles": "Cc1ncsc1-c1ccc([C@H](CO)NC(=O)[C@@H]2C[C@@H](O)CN2C(=O)[C@H](C(C)C)n2cc(-c3ccc(COc4c(-c5c(C)c(F)cc6[nH]ncc56)c(C5CC5)cc5c(N6CC[C@H]6C(N)=O)nc(OC6CCOCC6)nc45)cc3)nn2)cc1", "note": "[Example 35]", "values": [{"measurement": "IC50", "setting": "[1]", "value": 32, "unit": "nM"}, {"measurement": "IC50", "setting": "[2]", "value": 10, "unit": "nM"}, {"measurement": "DC50", "setting": "[3]", "value": 23, "unit": "nM"}, {"measurement": "IC50", "setting": "[4]", "value": 5, "unit": "nM"}]}, {"smiles": "CO[C@@H](C)COc1nc(NC2CN(C(=S)N3CC(CN(C)C)C3)C2)c2cc(C3CC3)c(-c3c(C)c(F)cc4[nH]ncc34)c(OCc3ccc(-c4cn([C@H](C(=O)N5C[C@H](O)C[C@H]5C(=O)N[C@@H](CO)c5ccc(-n6cncn6)cc5)C(C)C)nn4)cc3)c2n1", "note": "(atropisomer, axis not shown) [Example 26]", "values": [{"measurement": "IC50", "setting": "[1]", "value": 41, "unit": "nM"}, {"measurement": "IC50", "setting": "[2]", "value": 15, "unit": "nM"}, {"measurement": "DC50", "setting": "[3]", "value": 19, "unit": "nM"}, {"measurement": "IC50", "setting": "[4]", "value": 7, "unit": "nM"}]}]}
